In patent publication US7750024B2, “Remedy for glioblastoma” (Astellas Pharma Inc., priority 2002, dated 2010):
Where “and” joins values, the source holds several entries; their conditions need not be identical. Identical values can stand only once.

Tests used:
[1] = tested on: CGNH-89 human glioblastoma; experiment: Growth inhibition on glioblastoma in vivo, CGNH-89 transplanted subcutaneously in nude mice; settings: 100 mg/kg intraperitoneally for 14 days vs PBS; days 11 and 13 after onset and days 2, 4, 6, 8 after completion of administration
Method: Nude mice (5-6 weeks old) were used at this experiment. 10^7 cells of CGNH-89 used in Example 1 were transplanted subcutaneously in the nude mice. On the next day of transplantation, the mice were divided randomly in two groups; a group (n=12) to be administered with 100 mg/kg compound A and a group (n=12) to be administered with PBS (phosphate buffered saline). The drug was administered repeatedly intraperitoneally for 14 days starting on the next day of transplantation. Up to day 8 after the completion of the administration, the mice were observed. The tumor size was measured every two days with a vernier micrometer, to calculate the volume according to the formula (length×width^2)×½.
The results are shown in mean±standard deviation and statistically analyzed by the Student's t-test. The significance level was set at p<0.05.

[2] = tested on: C6 and RG2 glioma; settings: C6 and RG2 glioma transplanted rats; cited from earlier work
[3] = tested on: Human glioblastoma cell (CGNH-89 cell line); experiment: Proliferation of human glioblastoma cells by Ki67 antibody staining in vitro; type: cell-based
Method: (§1) Human glioblastoma cell (CGNH-89 cell line) was used at this experiment. These cells were randomly divided in the following three groups: a group of a glutamate-free medium (no glutamate group; control group); a group of the glutamate-free medium added 100 μM glutamate (100 μM glutamate group); a group of the glutamate-free medium added 100 μM glutamate and 20 μM NBQX (100 μM glutamate+20 μM NBQX group). The cells were incubated for 48 hours. The CGNH-89 cell was cultured in DMEM (Dulbecco's modified Eagle's medium) supplemented with 10% dialyzed fetal calf serum.
(§2) CGNH-89 cell line was established through resection from the tumor at the right front lobe of a person according to the Explant method by Nicolas et al. (Science 196, 60-63, 1977). […] Additionally, the mRNAs of GluR1 through GluR4 were analyzed with antibodies against the AMPA receptor subunits GluR1, GluR2, GluR3 and GluR4 and RT-PCR. Consequently, the cell line expresses GluR1 and GluR4 but not expresses GluR2 and GluR3. As described above, the cell line has the same profile as that of the cell of primary glioblastoma de novo.
(§3) The anti-tumor action was evaluated by calculating the apoptosis score by TUNEL method (terminal deoxynucleotide transferase (TdT)-mediated dUTP nick end labeling) 48 hours after culturing. Additionally, proliferation of the human glioblastoma cell was evaluated, using the antibody Ki67.
(§4) The results are shown as mean±standard deviation and statistically analyzed by the Student's t-test. Significance level was set at p<0.05.

[4] = tested on: Human glioblastoma cell (CGNH-89 cell line); experiment: Apoptosis by TUNEL method in human glioblastoma cells in vitro; type: cell-based
Method: as §1, §2, §3, §4

[5] = 20 μM NBQX + 100 μM glutamate, 48 hours incubation, mean±SD
[6] = 20 μM NBQX with 100 μM glutamate, 48 hours
[7] = 100 μM glutamate alone added to glutamate-free medium, 48 hours

Q: With `O.O=C(O)Cn1c(=O)c(=O)[nH]c2cc([N+](=O)[O-])c(-n3ccnc3)cc21` [Compound A, [7-(1H-imidazol-1-yl)-6-nitro-2,3-dioxo-3,4-dihydroquinoxalin-1 (2H)-yl]acetic acid•monohydrate] as the molecule, how does the “tumor growth inhibition (tumor volume)” value [1] read?
A: Its value is “significant tumor growth inhibition”.

Q: Which proliferation inhibition [2] does the source give for `C[C@]12N[C@H](Cc3ccccc31)c1ccccc12` [MK-801] here?
A: Its proliferation inhibition is “exert a proliferation inhibition”.

Q: With `NS(=O)(=O)c1cccc2c1c([N+](=O)[O-])cc1nc(O)c(O)nc12` [NBQX, 2,3-dihydroxy-6-nitro-7-sulfamoyl-benzo(F)-quinoxaline] as the molecule, how does the “staining index with Ki-67 (proliferation inhibiting activity)” value [3, 5] read?
A: The value was 2.0 ± 1.0%.

Q: What about the “effect on glutamate-induced proliferative activity” value [3, 6] of the same molecule?
A: The value was “suppressed the glutamate-induced proliferative activity”.

Q: And the “TUNEL-SCORE (ratio of apoptosis)” value [4, 5]?
A: The value was 13.0 ± 2.0%.

Q: What about the “effect on glutamate-induced suppression of apoptosis” value [4, 6] of the same molecule?
A: Its value is “induced the apoptosis”.

Q: For `N[C@@H](CCC(=O)O)C(=O)O` [glutamate], which “staining index with Ki-67 (proliferation inhibiting activity)” value [3, 7] is on record?
A: The value was 18.5% and 18.5 ± 3.0%.

Q: And the “TUNEL-SCORE (ratio of apoptosis)” value [4, 7]?
A: The value was 3% and 3.0 ± 2.0%.

Q: For `CC12CC3CC(C)(C1)CC(N)(C3)C2` [memantin], which proliferation inhibition [2] is on record?
A: Its proliferation inhibition is “exert a proliferation inhibition”.
